Laboratory results: PubChem BioAssay (NCI)
Several values for one entry are separate records, joined by “and”; a condition that tells them apart may be missing. Equal values may be shown once.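 Test compounds were applied to cells in 96-well plates for 48 hours at 5 doses. GI50 marks 50% less growth. The concentration for full growth arrest is given as TGI.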 Where a SMILES comes first, the peptide text is derived from it. The star is where a group is joined. Cbz = O=C(OCc1ccccc1)*

Experiments:
Assay in all cases: growth of human tumour cells (NCI), 48 h
[1] = test system: OVCAR-5 ovarian
[2] = test system: NCI/ADR-RES ovarian
[3] = test system: SNB-75 CNS
[4] = test system: MDA-MB-231 breast
[5] = test system: CCRF-CEM leukemia
[6] = test system: A549 NSCLC
[7] = test system: COLO 205 colon
[8] = test system: SK-OV-3 ovarian
[9] = test system: OVCAR-8 ovarian
[10] = test system: HL-60(TB) leukemia

## O=C1CC(=O)NC(=NN2C(=O)/C(=C/c3ccc(Cl)c(Cl)c3)N=C2c2ccccc2)N1
[1]
  TGI: > 100 µM
[2]
  TGI: 54.2 µM
[3]
  TGI: 81.8 µM
[4]
  TGI: 51.7 µM
[5]
  TGI: 45.3 µM
[6]
  TGI: > 100 µM
[7]
  TGI: 34.1 µM
[8]
  TGI: > 100 µM
[9]
  TGI: 94.9 µM

## CCOC(=O)C(NC(=O)c1ccccc1)(N1CCN(c2cc3c(cc2F)c(=O)c(C(=O)O)cn3C2CC2)CC1)C(F)(F)F (stereo not given)
[10]
  TGI: 36.5 µM
[1]
  TGI: 40.5 µM
[3]
  TGI: 69.9 µM
[4]
  TGI: 31 µM
[5]
  TGI: 14.6 µM
[6]
  TGI: > 100 µM
[7]
  TGI: 30.8 µM
[8]
  TGI: 80.2 µM
[9]
  TGI: > 100 µM

## COc1cccc(-c2nc(-c3cnccn3)n(C/C=C/c3ccccc3)n2)c1
[1]
  TGI: > 10 µM
[2]
  TGI: > 10 µM
[3]
  TGI: > 10 µM
[5]
  TGI: > 10 µM
[6]
  TGI: > 10 µM
[9]
  TGI: > 10 µM

## O=Cc1ccc(-c2ccc(-c3ccc(CO)s3)o2)s1
[10]
  TGI: > 22.3 µM
[2]
  TGI: 40.4 µM
[3]
  TGI: 69.1 µM
[4]
  TGI: > 80.3 µM
[5]
  TGI: > 23.7 µM
[6]
  TGI: 98.8 µM
[7]
  TGI: > 85.7 µM
[8]
  TGI: 78.8 µM
[9]
  TGI: 49 µM

## CC1(C)O[C@H]2OC(CO)C(N=[N+]=[N-])[C@H]2O1 (stereo not given in full)
[10]
  TGI: > 100 µM
[1]
  TGI: > 100 µM
[2]
  TGI: > 100 µM
[3]
  TGI: > 100 µM
[4]
  TGI: > 100 µM
[5]
  TGI: > 100 µM
[6]
  TGI: > 100 µM
[7]
  TGI: > 100 µM
[9]
  TGI: > 100 µM

## CCC1CC(O)c2c(O)c3c(c(O)c2C1O)C(=O)c1cccc(O)c1C3=O (stereo not given) (tested in a mixture with another compound)
[10]
  GI50: 0.0177 µM
  TGI: 0.0866 µM and 0.0744 µM
[1]
  TGI: 0.0301 µM
[2]
  GI50: 0.0101 µM
  TGI: 0.295 µM
[3]
  TGI: 0.049 µM and 0.0426 µM
[4]
  GI50: 0.0118 µM
  TGI: 0.164 µM and 0.404 µM
[5]
  TGI: 0.085 µM and 0.0441 µM
[7]
  TGI: 0.0939 µM and 0.019 µM
[8]
  GI50: 0.0111 µM
  TGI: 5.7 µM
[9]
  TGI: 0.181 µM and 1.19 µM

## CC(=O)O[C@@]12CO[C@@H]1CC(O)[C@@]1(C)C(=O)[C@H](O)C3=C(C)C(O)C[C@@](O)(C(OC(=O)c4ccccc4)C12)C3(C)C (stereo not given in full)
[10]
  TGI: > 100 µM
[1]
  TGI: > 29.1 µM
[2]
  TGI: > 100 µM
[3]
  TGI: 5.7 µM
[4]
  TGI: 66 µM
[5]
  TGI: > 100 µM
[6]
  TGI: > 100 µM
[7]
  TGI: 6.72 µM
[9]
  TGI: > 74.9 µM

## O=C1/C(=C\c2cccc(Oc3ccccc3)c2)S(=O)(=O)C(c2ccccc2)N1c1cccc(Cl)c1 (stereo not given)
[1]
  TGI: > 100 µM
[2]
  TGI: > 100 µM
[3]
  TGI: > 100 µM
[4]
  TGI: > 100 µM
[5]
  TGI: 83.9 µM
[6]
  TGI: > 100 µM
[7]
  TGI: > 100 µM
[8]
  TGI: > 100 µM
[9]
  TGI: 69.4 µM

## CCOC(=O)CCC(NC(=O)OCc1ccccc1)C(=O)NC(CCC(=O)OCC)C(=O)OCC (stereo not given) (Cbz-Glu(OEt)-Glu(OEt)-OEt; configuration not given here)
[1]
  TGI: > 100 µM
[2]
  TGI: > 100 µM
[3]
  TGI: > 100 µM
[4]
  TGI: > 100 µM
[5]
  TGI: > 100 µM
[6]
  TGI: > 100 µM
[7]
  TGI: > 100 µM
[8]
  TGI: > 100 µM
[9]
  TGI: > 100 µM

## OC(C/C=N/N=C/CC(O)(C(F)(F)Cl)C(F)(F)Cl)(C(F)(F)Cl)C(F)(F)Cl
[10]
  TGI: > 10 µM
[2]
  TGI: > 10 µM
[3]
  TGI: > 10 µM
[4]
  TGI: > 10 µM
[5]
  TGI: > 10 µM
[6]
  TGI: > 10 µM
[7]
  TGI: > 10 µM
[8]
  TGI: > 10 µM
[9]
  TGI: > 10 µM

## COc1cccc(CC(=O)N2CCN(CCCc3ccccc3)CC2)c1
[10]
  TGI: > 100 µM
[1]
  TGI: > 100 µM
[2]
  TGI: 94.3 µM
[4]
  TGI: > 100 µM
[5]
  TGI: > 100 µM
[6]
  TGI: > 100 µM
[7]
  TGI: > 100 µM
[8]
  TGI: > 100 µM
[9]
  TGI: > 100 µM
